Experimental data from patent US12677850B2, “Stevia blends containing rebaudioside B” (Tate & Lyle Solutions USA LLC, priority 2011, dated 2026).

Experiments:
[1] = format: physicochemical; conditions: pH 3
Description: To determine the solubility of rebaudioside A and rebaudioside B in certain solutions, four stock solutions were prepared. A 10× concentrated citric acid/sodium citrate pH 3 stock buffer solution was prepared by dissolving 0.9 g anhydrous citric acid and 0.26 g of sodium citrate dihydrate in water to make 100 mL of buffer (0.047 M citric acid+0.0088 M sodium citrate). A 2500 ppm (nominal) solution of rebaudioside A was prepared by dissolving 0.125 g of GLG RA 97 to make 50 mL of solution. A 2500 ppm (nominal) solution of stevioside was prepared by dissolving 0.125 g of GLG STV 97 to make 50 mL of solution. A 1000 ppm (nominal) solution of rebaudioside B was prepared by diluting 56 mL of a solution assayed at 1790 ppm to make 100 mL of solution.
These solutions were mixed as 1 mL total amounts by micropipetting the volumes, in microliters, into 1.5 mL microcentrifuge tubes As shown in Table 14.
After standing for […] (~100 hours), the tubes were spun in a bench top microcentrifuge to pelletize the precipitate. The clear supernate was sampled into vials and assayed for glycosides using a reverse phase high performance liquid chromatograph (HPLC) gradient method with UV detection (Waters 2695 Separations Module equipped with a Waters 2487 Dual X Absorbance Detector or equivalent instrumentation) that is summarized in Table 15. The HPLC conditions were as follows:
The supernatant data collected from the HPLC were processed using DESIGN EXPERT 8 software. Briefly, the data were entered into the program as “factor” data as a 2 factor-5 level general factorial design as the nominal data which were then converted to numerical data and replaced by the actual HPLC results. The software then selected a model that predicted the concentration (solubility) of rebaudioside B as a function of the concentration of rebaudioside A and stevioside in the supernatant. The software also calculated a number of statistical factors that indicated the significance of the model parameters.

[2] = system: informal testers; test: Informal testing of bitterness; format: in vivo, human; conditions: adding about 20%; as believed by several informal testers
Source text: Because the scale used encompasses “the universe”, the magnitude of differences between the 97% rebaudioside A solution and increasing levels of rebaudioside B is not as large as other informal testing determined.

[3] = system: panelists (descriptive panel); test: Descriptive panel: flavor attributes and intensities as a function of rebaudioside B content (Example 6); format: in vivo, human; conditions: adding about 20%; results from the descriptive panel of tasters
Description: A descriptive panel was used to quantify flavor attributes and intensities of varying levels of rebaudioside B added to rebaudioside A (which was 97% pure and contained 0.62% rebaudioside B). […] An 8% sucrose solution as a control. The solutions were prepared in neutral pH water. Other high intensity sweeteners included in the testing were Aspartame at 500 ppm, ASK at 750 ppm, Sucralose at 250 ppm, and Stevia at 500 ppm.
Before conducting the testing the ten panelists were extensively trained in the use of standardized vocabulary to describe the appearance, aroma, flavor, and texture of a wide variety of products in order to rate the samples for sweetness, bitterness, off flavor, chemical or artificial sweetener flavor, anise, and mouth coating. Each such attribute was evaluated on a first and second sip, and on after-taste. The testing began with a session to orient the panelists during which they tasted the samples and discussed the flavor characteristics. They also tasted and discussed references for “sweet”, “bitter”, and “anise”.
During the second and third days of testing, the panelists evaluated the samples for the various attributes and rated them on a scale from none to extreme that encompasses all food ingredient products, not just sweeteners. The products and solutions set forth in Table 19 were used to “anchor” the panelist to the scales.
Eight samples were evaluated per session. A 7 minute rest break was given between each sample and a 15 minute break was given after the first 4 samples had been evaluated. Two evaluations (i.e. replicates) were obtained from each panelist for each product; therefore, a total of 20 judgments were obtained for each product. During data collection, the panelists were instructed to indicate the intensity of each sensory characteristic by placing a vertical slash on 15-cm line scales. The serving order was balanced, with products seen approximately an equal number of times in each possible position. In the waiting room, ambient Alhambra drinking water, unsalted soda crackers, and celery were provided for cleansing the palate between samples.
Slash marks on the line scales were converted to numbers ranging from 1 to 15 by SIMS, the computerized sensory data collection system. Mean intensities were calculated for each sensory characteristic. Analysis of Variance and Duncan's Multiple Range Test, where appropriate, were used to determine significant differences among the samples for each attribute. When panelist-by-product interactions were significant, the mean square of the interaction term, instead of the mean square of the error term, was used in calculation of the product F values.
The flavor attributes were also compared between the samples.

[4] = system: Tate & Lyle employees (taste panel); test: Paired comparison test for sweetness and preference, Reb A/Reb B mixture vs 900 ppm 97% rebaudioside A (Example 3); format: in vivo, human; conditions: 536 ppm Reb A + 310 ppm Reb B vs control 900 ppm Reb A; spring water with phosphoric acid; room temperature; test sample tasted first
Description: A taste panel was asked to compare a commercial mixture of rebaudioside A and rebaudioside B and a 900 ppm sample of 97% rebaudioside A. Tate &Lyle employees participated in paired comparison tests for sweetness and preference. Samples were tested at room temperature in two ounce soufflé cups label with random three-digit code& The presentation order was not rotated because of carryover of the off-flavor of rebaudioside A at 900 ppm. The panelist evaluated the test sample first and then the control 900 ppm rebaudioside A sample. The panelists were instructed not to re-taste the samples. Additionally, the panelists were required to wait one minute between testing samples and instructed to clear their palates with a 2% sucrose solution, an unsalted cracker, and bottled water. The panelists were asked to identify the solution that was sweeter and which they like better. The ballot was presented and the data was collected with SIMS sensory software (Sensory Computer Systems, LLC, Morristown, NJ).
The instructions for the paired comparison test were: • (i) It is important that you rinse before and between samples. • (ii) Clear your palate with a bite of cracker. Then rinse with the sugar water. […]

[5] = previous reports; cited from earlier work

rebaudioside A
effect of its presence on the solubility of rebaudioside B [1]: increases | reduction of bitterness [2]: about 80% | reduction of bitterness [3]: about 30%

rebaudioside A [control 900 ppm Reb A]
preference (number of panelists preferring the sample) [4]: 2 | sweetness (number of panelists choosing the sample as sweeter) [4]: 15

rebaudioside B
solubility [1]: limited | sweetness relative to rebaudioside A [5]: one-half to two-thirds
